The results in this text go back to ChEMBL document CHEMBL1201862, “PubChem BioAssay data set” (2004).

Test systems include A498; ACHN; CAKI-1; HCC 2998; HT-29; Hs-578T; MCF7; MOLT-4; Malme-3M; OVCAR-3; OVCAR-5; SF-295; SF-539; SK-OV-3; SR; SW-620; U-251; HOP-62; NCI-H522; OVCAR-4.
What all share (experiment): NCI tumour cell line growth inhibition, 48 h

SMILES strings stand for the structures.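 A five-concentration, 48-hour dose response in 96-well plates underlies each endpoint, interpolated linearly between surrounding concentrations. Abbreviation: GI50, concentration required for 50% inhibition of growth.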 Activity calls are given as the source filed them. Cut-off read from the data, not from the text of the source: active = GI50 up to about 1.1 µM and inactive = higher.

`c1ccc(-c2c(-c3cccs3)[nH]c(-c3cccs3)c2-c2ccccn2)nc1`: the GI50 with A498 was 27.5 µM (inactive); in the experiment on ACHN, 30.5 µM (inactive); in the experiment with CAKI-1, 37.4 µM (inactive); with HCC 2998, 20.2 µM (inactive); in the experiment on HT-29, 14.2 µM (inactive); in the experiment on Hs-578T it was 33.4 µM (inactive). Moreover, the GI50 in the experiment with MCF7 was > 10 µM (inactive); in the experiment with MOLT-4, 11.7 µM (inactive); with Malme-3M, 25.5 µM (inactive); in the experiment with OVCAR-3 it was 24 µM (inactive); with OVCAR-5, 30.5 µM (inactive); in the experiment on SF-295, 20.2 µM (inactive). The GI50 in the experiment with SF-539 is 20.4 µM (inactive); in the experiment on SK-OV-3, 21.9 µM (inactive); in the experiment with SR, 26.2 µM (inactive); with SW-620, 13 µM (inactive); in the experiment on U-251, 20.2 µM (inactive).
Consider `[N-]=[N+]=NI1OC(C(F)(F)F)(C(F)(F)F)c2ccccc21`, for which the GI50 in the experiment on A498 is 17 µM (inactive); with ACHN, 13.9 µM (inactive); with CAKI-1 it was 8.55 µM (inactive); in the experiment with HCC 2998, 17.9 µM (inactive); with HOP-62, 15.1 µM (inactive); in the experiment with HT-29, 17.3 µM (inactive). Also, the GI50 was 12.6 µM (inactive) in the experiment on Hs-578T; 12.9 µM (inactive) in the experiment with MCF7; 14.7 µM (inactive) in the experiment with MOLT-4; 5.83 µM (inactive) in the experiment with NCI-H522; 14.7 µM (inactive) in the experiment with OVCAR-3; 15.1 µM (inactive) in the experiment with OVCAR-4. In addition, the GI50 in the experiment with OVCAR-5 was 15.1 µM (inactive); in the experiment on SF-295 it was 16 µM (inactive); in the experiment with SF-539, 16.5 µM (inactive); in the experiment on SK-OV-3, 21.5 µM (inactive); in the experiment on SR, 15.6 µM (inactive); in the experiment with SW-620, 19.1 µM (inactive). Also, in the experiment with U-251, the GI50 was 18.1 µM (inactive).
As to `CN(C)c1nc(NN)c2c(-c3ccccc3)c(-c3ccccc3)oc2n1`, the GI50 is > 100 µM (inactive) in the experiment with A498; > 100 µM (inactive) with ACHN; > 100 µM (inactive) with CAKI-1; > 100 µM (inactive) in the experiment on HCC 2998; 98.4 µM (inactive) in the experiment with HT-29; 45.8 µM (inactive) in the experiment with Hs-578T. Moreover, the GI50 with MCF7 was > 100 µM (inactive); with MOLT-4 it was > 100 µM (inactive); in the experiment with NCI-H522, 68.2 µM (inactive); in the experiment on OVCAR-4 it was 35.1 µM (inactive); in the experiment with OVCAR-5, > 100 µM (inactive); with SF-295, > 100 µM (inactive). The GI50 in the experiment on SF-539 was > 100 µM (inactive); with SK-OV-3, > 100 µM (inactive); with SR, 72.3 µM (inactive); in the experiment with SW-620, > 100 µM (inactive); in the experiment on U-251, > 100 µM (inactive).
Turning to `Nc1ncnc2c1ncn2[C@@H]1C[C@H]1CO`, the GI50 in the experiment with A498, in the experiment on ACHN, with HCC 2998, with HOP-62, in the experiment with HT-29 and in the experiment on Hs-578T was > 100 µM (inactive) throughout. For the same compound, the GI50 in the experiment with MCF7 was > 100 µM (inactive); in the experiment with MOLT-4, > 100 µM (inactive); in the experiment on Malme-3M, > 100 µM (inactive); in the experiment on NCI-H522, > 100 µM (inactive); in the experiment with OVCAR-3 it was 42 µM (inactive); in the experiment with OVCAR-5, > 100 µM (inactive). Besides, the GI50 in the experiment with SF-295, with SF-539, in the experiment on SR, in the experiment on SW-620 and with U-251 was > 100 µM (inactive) in each case.
On to `CC1CCC2c3c([nH]c4ccccc34)C3C(=O)N(C4CCCCC4)C(=O)C3C2C1` (centres undefined), for which the GI50 in the experiment with A498 is 22 µM (inactive); in the experiment with ACHN, 13.5 µM (inactive); in the experiment with CAKI-1 it was 14 µM (inactive); in the experiment with HCC 2998, > 100 µM (inactive); with HOP-62, 14.4 µM (inactive); in the experiment with HT-29, > 100 µM (inactive). Moreover, the GI50 is 13 µM (inactive) in the experiment on Hs-578T; > 10 µM (inactive) with MCF7; 29.3 µM (inactive) with Malme-3M; > 100 µM (inactive) in the experiment on NCI-H522; 19.9 µM (inactive) with OVCAR-3; 18.5 µM (inactive) in the experiment on OVCAR-5. The GI50 in the experiment on SF-295 was 16.3 µM (inactive); in the experiment with SF-539, 21.9 µM (inactive); with SK-OV-3, 18 µM (inactive); in the experiment with SR, 29.2 µM (inactive); in the experiment with SW-620 it was 67.3 µM (inactive); in the experiment with U-251, 12.7 µM (inactive).
Turning to `C[C@]12CC[C@H]3[C@@H](CCC4=CC(=O)CC[C@@H]43)[C@@H]1CC[C@]2(O)C(N)=O`, the GI50 in the experiment on A498, in the experiment on ACHN, with HCC 2998, in the experiment on HOP-62, with HT-29 and in the experiment with Hs-578T was > 100 µM (inactive) in each case. For the same compound, the GI50 in the experiment on MCF7, in the experiment on MOLT-4, in the experiment on Malme-3M, with NCI-H522, in the experiment on OVCAR-3 and in the experiment on OVCAR-4 was > 100 µM (inactive) each time. Further, the GI50 in the experiment on OVCAR-5, in the experiment with SF-295, in the experiment on SF-539, in the experiment with SK-OV-3, in the experiment on SR and in the experiment with SW-620 was > 100 µM (inactive) in each case. In addition, the GI50 in the experiment with U-251 was > 100 µM (inactive).
Regarding `COc1ccc(OC)c2sc(N3C(=O)/C(=C/Cc4ccco4)N=C3c3ccccc3)nc12`, the GI50 is 66.2 µM (inactive) in the experiment with A498; 26.7 µM (inactive) in the experiment on ACHN; 81.1 µM (inactive) in the experiment on CAKI-1; > 100 µM (inactive) with HCC 2998; 43 µM (inactive) with HOP-62; 44 µM (inactive) with HT-29. The GI50 was 42.2 µM (inactive) in the experiment with Hs-578T; 17.7 µM (inactive) in the experiment with MCF7; 17.9 µM (inactive) in the experiment on MOLT-4; 31.4 µM (inactive) in the experiment with OVCAR-3; 32 µM (inactive) in the experiment with OVCAR-4; > 100 µM (inactive) in the experiment on OVCAR-5. The GI50 in the experiment with SF-295 was 73.1 µM (inactive); in the experiment with SF-539, 53.5 µM (inactive); in the experiment on SK-OV-3 it was 83.4 µM (inactive); in the experiment with SR, 19.4 µM (inactive); in the experiment with SW-620, 32.5 µM (inactive); with U-251 it was 22.5 µM (inactive).
As to `C/N=C1\OC2=C3C(c4ccccc4)(O/C(=N/C)N(C)C3(c3ccccc3)OC2=O)N1C` (centres undefined), the GI50 in the experiment with A498, with ACHN, in the experiment with CAKI-1, with HCC 2998, in the experiment with HOP-62 and in the experiment on HT-29 was > 100 µM (inactive) each time. In addition, the GI50 in the experiment with Hs-578T, with MCF7, with MOLT-4, in the experiment on NCI-H522, in the experiment with OVCAR-3 and with OVCAR-4 was > 100 µM (inactive) in each case. Further, the GI50 with OVCAR-5, with SF-295, with SF-539, in the experiment on SK-OV-3, with SR and in the experiment on SW-620 was > 100 µM (inactive) each time. In the experiment with U-251, the GI50 is > 100 µM (inactive).
As to `COc1cc(C2c3cc4c(cc3OC(C)(O)C2C)OCO4)cc(OC)c1OC` (centres undefined), the GI50 in the experiment with A498 is 13.9 µM (inactive); with ACHN it was 0.938 µM (active); with CAKI-1 it was 12.2 µM (inactive); with HCC 2998 it was 0.646 µM (active); in the experiment with HOP-62 it was 0.335 µM (active); in the experiment with HT-29, 0.344 µM (active). For the same compound, the GI50 in the experiment with Hs-578T is 0.449 µM (active); with MCF7, 0.375 µM (active); in the experiment with MOLT-4, 0.513 µM (active); with Malme-3M it was 0.407 µM (active); in the experiment with NCI-H522, 0.235 µM (active); with OVCAR-3 it was 0.316 µM (active). Further, the GI50 is > 100 µM (inactive) with OVCAR-5; 0.304 µM (active) in the experiment on SF-295; 0.277 µM (active) in the experiment with SF-539; 0.379 µM (active) with SR; 0.349 µM (active) with SW-620; 0.443 µM (active) in the experiment on U-251.
Consider `O=C1CC(c2ccccc2Cl)C2(C(=O)NC(=S)NC2=O)C(c2ccccc2Cl)C1` (centres undefined), for which the GI50 with A498 is 21.4 µM (inactive); in the experiment on ACHN it was 24.8 µM (inactive); in the experiment on HCC 2998, 27 µM (inactive); in the experiment on HOP-62, 34.2 µM (inactive); in the experiment with HT-29, 74 µM (inactive); with Hs-578T, 0.465 µM (active). For the same compound, the GI50 is 18.3 µM (inactive) with MCF7; 54.7 µM (inactive) in the experiment with MOLT-4; 1.56 µM (inactive) with Malme-3M; 34.1 µM (inactive) with NCI-H522; 26.5 µM (inactive) in the experiment with OVCAR-3; 52 µM (inactive) in the experiment on OVCAR-4. Moreover, the GI50 with OVCAR-5 was 42.1 µM (inactive); with SF-295, 22.9 µM (inactive); with SF-539, 58.7 µM (inactive); in the experiment on SK-OV-3, 43 µM (inactive); in the experiment with SR it was 44 µM (inactive); with SW-620, 35.7 µM (inactive). Besides, in the experiment on U-251, the GI50 was 15.3 µM (inactive).
Turning to `O=C1NC2(CCCCC2)C(=O)N1CCN(CCCl)CCCl` [SPIROMUSTINE], the GI50 was > 250 µM (inactive) in the experiment on A498; 23.1 µM (inactive) in the experiment with ACHN; 41.8 µM (inactive) in the experiment with CAKI-1; > 230 µM (inactive) in the experiment with HCC 2998; 107 µM (inactive) in the experiment with HOP-62; > 250 µM (inactive) in the experiment on HT-29. For the same compound, the GI50 in the experiment on Hs-578T is > 25 µM (inactive); with MCF7 it was 113 µM (inactive); with MOLT-4, 34.2 µM (inactive); in the experiment with Malme-3M it was 165 µM (inactive); with NCI-H522, 65.5 µM (inactive); in the experiment with OVCAR-4 it was > 239 µM (inactive). In addition, the GI50 in the experiment on OVCAR-5 is > 233 µM (inactive); in the experiment on SF-539, 114 µM (inactive); with SK-OV-3, 171 µM (inactive); with SR it was 19.4 µM (inactive); with SW-620 it was 102 µM (inactive); with U-251 it was 182 µM (inactive).
